{
  "source": "ChEMBL document CHEMBL1240428",
  "about": "“Conventional and microwave assisted synthesis of some new N-[(4-oxo-2-substituted aryl -1, 3-thiazolidine)-acetamidyl]-5-nitroindazoles and its antimicrobial activity” (2010)",
  "data": [
    {"system": "Escherichia coli", "assay": "Antibacterial activity against Escherichia coli at 50 ug/mL", "format": "functional", "conditions": "read-out: IZ", "units": {"zone of inhibition at 50 µg/mL": "mm"}, "values": [
      {"compound": "Cc1ccc(C2SCC(=O)N2NC(=O)Cn2ncc3cc([N+](=O)[O-])ccc32)cc1", "note": "(stereo unspecified)", "zone of inhibition at 50 µg/mL": 12},
      {"compound": "CN(C)c1ccc(C2SCC(=O)N2NC(=O)Cn2ncc3cc([N+](=O)[O-])ccc32)cc1", "note": "(stereo unspecified)", "zone of inhibition at 50 µg/mL": 13.5}
    ]},
    {"system": "Escherichia coli", "assay": "Antibacterial activity against Escherichia coli at 100 ug/mL", "format": "functional", "conditions": "read-out: IZ", "units": {"zone of inhibition at 100 µg/mL": "mm"}, "values": [
      {"compound": "Cc1ccc(C2SCC(=O)N2NC(=O)Cn2ncc3cc([N+](=O)[O-])ccc32)cc1", "note": "(stereo unspecified)", "zone of inhibition at 100 µg/mL": 14.8},
      {"compound": "CN(C)c1ccc(C2SCC(=O)N2NC(=O)Cn2ncc3cc([N+](=O)[O-])ccc32)cc1", "note": "(stereo unspecified)", "zone of inhibition at 100 µg/mL": 16}
    ]},
    {"system": "Bacillus subtilis", "assay": "Antibacterial activity against Bacillus subtilis at 50 ug/mL", "format": "functional", "conditions": "read-out: IZ", "units": {"zone of inhibition at 50 µg/mL": "mm"}, "values": [
      {"compound": "Cc1ccc(C2SCC(=O)N2NC(=O)Cn2ncc3cc([N+](=O)[O-])ccc32)cc1", "note": "(stereo unspecified)", "zone of inhibition at 50 µg/mL": 9},
      {"compound": "CN(C)c1ccc(C2SCC(=O)N2NC(=O)Cn2ncc3cc([N+](=O)[O-])ccc32)cc1", "note": "(stereo unspecified)", "zone of inhibition at 50 µg/mL": 10.4}
    ]},
    {"system": "Bacillus subtilis", "assay": "Antibacterial activity against Bacillus subtilis at 100 ug/mL", "format": "functional", "conditions": "read-out: IZ", "units": {"zone of inhibition at 100 µg/mL": "mm"}, "values": [
      {"compound": "Cc1ccc(C2SCC(=O)N2NC(=O)Cn2ncc3cc([N+](=O)[O-])ccc32)cc1", "note": "(stereo unspecified)", "zone of inhibition at 100 µg/mL": 12.2},
      {"compound": "CN(C)c1ccc(C2SCC(=O)N2NC(=O)Cn2ncc3cc([N+](=O)[O-])ccc32)cc1", "note": "(stereo unspecified)", "zone of inhibition at 100 µg/mL": 13.8}
    ]},
    {"system": "Aspergillus flavus", "assay": "Antifungal activity against Aspergillus flavus at 50 ug/mL", "format": "functional", "conditions": "read-out: IZ", "units": {"zone of inhibition at 50 µg/mL": "mm"}, "values": [
      {"compound": "Cc1ccc(C2SCC(=O)N2NC(=O)Cn2ncc3cc([N+](=O)[O-])ccc32)cc1", "note": "(stereo unspecified)", "zone of inhibition at 50 µg/mL": 11.1},
      {"compound": "CN(C)c1ccc(C2SCC(=O)N2NC(=O)Cn2ncc3cc([N+](=O)[O-])ccc32)cc1", "note": "(stereo unspecified)", "zone of inhibition at 50 µg/mL": 12.6}
    ]},
    {"system": "Aspergillus flavus", "assay": "Antifungal activity against Aspergillus flavus at 100 ug/mL", "format": "functional", "conditions": "read-out: IZ", "units": {"zone of inhibition at 100 µg/mL": "mm"}, "values": [
      {"compound": "Cc1ccc(C2SCC(=O)N2NC(=O)Cn2ncc3cc([N+](=O)[O-])ccc32)cc1", "note": "(stereo unspecified)", "zone of inhibition at 100 µg/mL": 14},
      {"compound": "CN(C)c1ccc(C2SCC(=O)N2NC(=O)Cn2ncc3cc([N+](=O)[O-])ccc32)cc1", "note": "(stereo unspecified)", "zone of inhibition at 100 µg/mL": 15.4}
    ]},
    {"system": "Penicillium citrinum", "assay": "Antifungal activity against Penicillium citrinum at 50 ug/mL", "format": "functional", "conditions": "read-out: IZ", "units": {"zone of inhibition at 50 µg/mL": "mm"}, "values": [
      {"compound": "Cc1ccc(C2SCC(=O)N2NC(=O)Cn2ncc3cc([N+](=O)[O-])ccc32)cc1", "note": "(stereo unspecified)", "zone of inhibition at 50 µg/mL": 10},
      {"compound": "CN(C)c1ccc(C2SCC(=O)N2NC(=O)Cn2ncc3cc([N+](=O)[O-])ccc32)cc1", "note": "(stereo unspecified)", "zone of inhibition at 50 µg/mL": 11.4}
    ]},
    {"system": "Penicillium citrinum", "assay": "Antifungal activity against Penicillium citrinum at 100 ug/mL", "format": "functional", "conditions": "read-out: IZ", "units": {"zone of inhibition at 100 µg/mL": "mm"}, "values": [
      {"compound": "Cc1ccc(C2SCC(=O)N2NC(=O)Cn2ncc3cc([N+](=O)[O-])ccc32)cc1", "note": "(stereo unspecified)", "zone of inhibition at 100 µg/mL": 13.2},
      {"compound": "CN(C)c1ccc(C2SCC(=O)N2NC(=O)Cn2ncc3cc([N+](=O)[O-])ccc32)cc1", "note": "(stereo unspecified)", "zone of inhibition at 100 µg/mL": 14.5}
    ]},
    {"system": "Fusarium oxysporum", "assay": "Antifungal activity against Fusarium oxysporum at 50 ug/mL", "format": "functional", "conditions": "read-out: IZ", "units": {"zone of inhibition at 50 µg/mL": "mm"}, "values": [
      {"compound": "Cc1ccc(C2SCC(=O)N2NC(=O)Cn2ncc3cc([N+](=O)[O-])ccc32)cc1", "note": "(stereo unspecified)", "zone of inhibition at 50 µg/mL": 12.9},
      {"compound": "CN(C)c1ccc(C2SCC(=O)N2NC(=O)Cn2ncc3cc([N+](=O)[O-])ccc32)cc1", "note": "(stereo unspecified)", "zone of inhibition at 50 µg/mL": 13.9}
    ]},
    {"system": "Fusarium oxysporum", "assay": "Antifungal activity against Fusarium oxysporum at 100 ug/mL", "format": "functional", "conditions": "read-out: IZ", "units": {"zone of inhibition at 100 µg/mL": "mm"}, "values": [
      {"compound": "Cc1ccc(C2SCC(=O)N2NC(=O)Cn2ncc3cc([N+](=O)[O-])ccc32)cc1", "note": "(stereo unspecified)", "zone of inhibition at 100 µg/mL": 15.4},
      {"compound": "CN(C)c1ccc(C2SCC(=O)N2NC(=O)Cn2ncc3cc([N+](=O)[O-])ccc32)cc1", "note": "(stereo unspecified)", "zone of inhibition at 100 µg/mL": 16.8}
    ]},
    {"system": "Escherichia coli", "assay": "Antibacterial activity against Escherichia coli", "format": "functional", "conditions": "not given", "units": {"MIC": "µg/mL"}, "values": [
      {"compound": "Cc1ccc(C2SCC(=O)N2NC(=O)Cn2ncc3cc([N+](=O)[O-])ccc32)cc1", "note": "(stereo unspecified)", "MIC": 25},
      {"compound": "CN(C)c1ccc(C2SCC(=O)N2NC(=O)Cn2ncc3cc([N+](=O)[O-])ccc32)cc1", "note": "(stereo unspecified)", "MIC": 22}
    ]},
    {"system": "Bacillus subtilis", "assay": "Antibacterial activity against Bacillus subtilis", "format": "functional", "conditions": "not given", "units": {"MIC": "µg/mL"}, "values": [
      {"compound": "Cc1ccc(C2SCC(=O)N2NC(=O)Cn2ncc3cc([N+](=O)[O-])ccc32)cc1", "note": "(stereo unspecified)", "MIC": 40},
      {"compound": "CN(C)c1ccc(C2SCC(=O)N2NC(=O)Cn2ncc3cc([N+](=O)[O-])ccc32)cc1", "note": "(stereo unspecified)", "MIC": 36}
    ]},
    {"system": "Aspergillus flavus", "assay": "Antifungal activity against Aspergillus flavus", "format": "functional", "conditions": "not given", "units": {"MIC": "µg/mL"}, "values": [
      {"compound": "Cc1ccc(C2SCC(=O)N2NC(=O)Cn2ncc3cc([N+](=O)[O-])ccc32)cc1", "note": "(stereo unspecified)", "MIC": 23},
      {"compound": "CN(C)c1ccc(C2SCC(=O)N2NC(=O)Cn2ncc3cc([N+](=O)[O-])ccc32)cc1", "note": "(stereo unspecified)", "MIC": 22}
    ]},
    {"system": "Penicillium citrinum", "assay": "Antifungal activity against Penicillium citrinum", "format": "functional", "conditions": "not given", "units": {"MIC": "µg/mL"}, "values": [
      {"compound": "Cc1ccc(C2SCC(=O)N2NC(=O)Cn2ncc3cc([N+](=O)[O-])ccc32)cc1", "note": "(stereo unspecified)", "MIC": 32},
      {"compound": "CN(C)c1ccc(C2SCC(=O)N2NC(=O)Cn2ncc3cc([N+](=O)[O-])ccc32)cc1", "note": "(stereo unspecified)", "MIC": 30}
    ]},
    {"system": "Fusarium oxysporum", "assay": "Antifungal activity against Fusarium oxysporum", "format": "functional", "conditions": "not given", "units": {"MIC": "µg/mL"}, "values": [
      {"compound": "Cc1ccc(C2SCC(=O)N2NC(=O)Cn2ncc3cc([N+](=O)[O-])ccc32)cc1", "note": "(stereo unspecified)", "MIC": 20},
      {"compound": "CN(C)c1ccc(C2SCC(=O)N2NC(=O)Cn2ncc3cc([N+](=O)[O-])ccc32)cc1", "note": "(stereo unspecified)", "MIC": 18}
    ]},
    {"system": "Salmonella typhi", "assay": "Antibacterial activity against Salmonella typhi", "conditions": "not given", "units": {"MIC": "µg/mL"}, "values": [
      {"compound": "Cc1ccc(C2SCC(=O)N2NC(=O)Cn2ncc3cc([N+](=O)[O-])ccc32)cc1", "note": "(stereo unspecified)", "MIC": 30},
      {"compound": "CN(C)c1ccc(C2SCC(=O)N2NC(=O)Cn2ncc3cc([N+](=O)[O-])ccc32)cc1", "note": "(stereo unspecified)", "MIC": 25}
    ]},
    {"system": "Salmonella typhi", "assay": "Antibacterial activity against Salmonella typhi at 50 ug/mL", "conditions": "read-out: IZ", "units": {"zone of inhibition at 50 µg/mL": "mm"}, "values": [
      {"compound": "Cc1ccc(C2SCC(=O)N2NC(=O)Cn2ncc3cc([N+](=O)[O-])ccc32)cc1", "note": "(stereo unspecified)", "zone of inhibition at 50 µg/mL": 10.1},
      {"compound": "CN(C)c1ccc(C2SCC(=O)N2NC(=O)Cn2ncc3cc([N+](=O)[O-])ccc32)cc1", "note": "(stereo unspecified)", "zone of inhibition at 50 µg/mL": 11.5}
    ]},
    {"system": "Salmonella typhi", "assay": "Antibacterial activity against Salmonella typhi at 100 ug/mL", "conditions": "read-out: IZ", "units": {"zone of inhibition at 100 µg/mL": "mm"}, "values": [
      {"compound": "Cc1ccc(C2SCC(=O)N2NC(=O)Cn2ncc3cc([N+](=O)[O-])ccc32)cc1", "note": "(stereo unspecified)", "zone of inhibition at 100 µg/mL": 13.3},
      {"compound": "CN(C)c1ccc(C2SCC(=O)N2NC(=O)Cn2ncc3cc([N+](=O)[O-])ccc32)cc1", "note": "(stereo unspecified)", "zone of inhibition at 100 µg/mL": 14.9}
    ]}
  ]
}
